This is an account of results in ChEMBL document CHEMBL1133438, “Potent acetylcholinesterase inhibitors: design, synthesis and structure-activity relationships of alkylene linked bis-galanthamine and galanthamine-galanthaminium salts” (Bioorg Med Chem Lett, 2000).

Each structure is given as a SMILES string.

The target in the test is Acetylcholinesterase (Electrophorus electricus, UniProt O42275). Description: Compound was assessed for in vitro inhibition of Acetylcholinesterase isolated from Electrophorus electricus.
Chain of Acetylcholinesterase (O42275 whole entry): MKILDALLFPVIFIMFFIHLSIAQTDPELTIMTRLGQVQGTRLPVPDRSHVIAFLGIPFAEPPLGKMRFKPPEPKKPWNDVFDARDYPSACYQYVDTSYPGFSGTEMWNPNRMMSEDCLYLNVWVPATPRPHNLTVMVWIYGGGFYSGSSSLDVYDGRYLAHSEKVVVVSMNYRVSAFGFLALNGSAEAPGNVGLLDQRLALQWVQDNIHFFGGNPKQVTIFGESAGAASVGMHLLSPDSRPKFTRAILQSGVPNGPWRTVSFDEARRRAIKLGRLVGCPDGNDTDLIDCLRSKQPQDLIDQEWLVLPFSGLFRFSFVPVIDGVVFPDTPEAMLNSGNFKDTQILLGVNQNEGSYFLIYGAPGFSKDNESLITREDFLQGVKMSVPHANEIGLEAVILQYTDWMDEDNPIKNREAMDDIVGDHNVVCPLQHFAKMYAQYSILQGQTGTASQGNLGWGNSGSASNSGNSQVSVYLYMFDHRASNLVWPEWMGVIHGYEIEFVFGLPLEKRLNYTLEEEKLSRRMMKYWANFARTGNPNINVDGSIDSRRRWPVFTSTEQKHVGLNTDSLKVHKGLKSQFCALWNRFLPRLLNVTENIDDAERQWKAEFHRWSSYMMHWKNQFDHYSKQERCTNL
What is called IC50 is the midpoint of a concentration-inhibition curve. As to `COc1ccc2c3c1OC1C[C@@H](O)C=C[C@@]31CCN(CCCCCCN1CC[C@@]34C=C[C@H](OC)C[C@@H]3Oc3c(OC)ccc(c34)C1)C2` (stereo partly specified), it took 450 nM to reach half-maximal inhibition (IC50). `COc1ccc2c3c1OC1C[C@@H](O)C=C[C@@]31CCN(CCCCCCCCCCN1CC[C@@]34C=C[C@H](OC)C[C@@H]3Oc3c(OC)ccc(c34)C1)C2` (stereo partly specified) returned a half-maximal inhibitory concentration (IC50) of 560 nM.

`COc1ccc2c3c1OC1C[C@@H](O)C=C[C@@]31CC[N+](CCCCCCCCCCN1CC[C@@]34C=C[C@H](O)C[C@@H]3Oc3c(OC)ccc(c34)C1)=C2` (stereo partly specified) had an IC50 of 12 nM. Take `COc1ccc2c3c1OC1C[C@@H](O)C=C[C@@]31CC[N+](CCCCCCN1CC[C@@]34C=C[C@H](O)C[C@@H]3Oc3c(OC)ccc(c34)C1)=C2` (stereo partly specified): 68 nM corresponded to half-maximal inhibition (IC50).

For the molecule `COc1ccc2c3c1OC1C[C@@H](O)C=C[C@@]31CCN(CCCCCCCCN1CC[C@@]34C=C[C@H](OC)C[C@@H]3Oc3c(OC)ccc(c34)C1)C2` (stereo partly specified), half-maximal inhibition (IC50) was put at 230 nM. As for `COc1ccc2c3c1OC1C[C@@H](O)C=C[C@@]31CC[N+](CCCCCCCCN1CC[C@@]34C=C[C@H](O)C[C@@H]3Oc3c(OC)ccc(c34)C1)=C2` (stereo partly specified), the figure is 22 nM.
